According to paper PMC12648443, “Modifications of NU-9, a potent protein aggregation inhibitor. Properties and activity in a cellular model of amyotrophic lateral sclerosis” (Bioorganic chemistry, 2025):

Key:
[1] = tested on: cells containing SOD1 mutations associated with ALS; set-up: method as in PMID 21073276, PMID 22189273, PMID 22837812; conditions: Fig. 1, evolution of CHD series; cited from earlier work
cortical neurons = tested on: cortical neurons; set-up: method as in PMID 22189273; conditions: cited from earlier work
[2] = tested on: MG132-induced mutant SOD1 intracellular aggregation in PC12-SOD1^G85R YFP cells; assay: Protection against MG132-induced mut-SOD1 intracellular aggregation (fluorescence microscopy); assay type: cell-based; conditions: for EC50 / EC50 against MG132-induced mutant SOD1 intracellular aggregation: PC12-SOD1^G85R YFP cells, 0.7 μM MG132, 72 h, Inactive = no decrease of aggregates at 10 μM vs vehicle; for loss of potency relative to NU-9: anti-aggregation EC50 compared with NU-9
Protocol: The PC12 Tet-Off-SOD1^G85R YFP cells were cultured in DMEM media supplemented with 10 % horse serum, 5 % Tet-approved FBS, 1 % Penstrep, 1× L-glutamine, 200 μg/mL hygromycin, 100 μg/mL G418, with 1 μg/mL Doxycycline and were incubated at 37 °C in humidified air with […] until 90–95 % confluency. To induce the expression of SOD1^G85R YFP, the Doxycycline was removed at least 4 days before the experiment. To remove the Doxycycline, the media was removed, and the cells were washed 3 times with 1xPBS. The cells were then cultured in standard culture media without Doxycycline. To set up the assay, the cells were then seeded into 96-well cell culture plates (Greiner Bio-One Catalog #655090) at a concentration of 50,000 cells/well with a final volume of 100 μL/well and incubated in the CO2 incubator at 37 °C for 24 h. The media were removed from the cells and replaced with 100 μL of media containing 0.1 % DMSO or compounds, and incubated in the CO2 incubator at 37 °C for 6 h. The media were then replaced with fresh 100 μL of media containing the diluted compounds with 0.7 μM (−)-MG-132, and the plates were incubated for 72 h under culture conditions. After 72 h, the cells were stained with Hoescht 33,342 (55 μg/mL, 10 μL/well) and imaged (lex = 358, 513 nm) using a Molecular Devices ImageXpress Micro Confocal High-Content Imaging System equipped with a 40× objective. […] Image binning was set to 2. DAPI fluorescence was captured using an exposure time of 300 ms, and FITC fluorescence was captured using an exposure time of 400 ms. A 13-plane z-series was acquired for each field of view with a step size of 3 μm. For each condition, 2 sets of 9 images were generated in a 3 × 3 grid to separately image the SOD1^G85R YFP proteins and the nuclei stained with Hoescht 33,342. Image analysis was performed with MetaXpress software (Molecular Devices) using the Transfluor module. Parameters for puncta detection (aggregates) were set with a minimum pit width of 2 μm and a maximum pit width of 5 μm. Signal intensity thresholds were defined as 700 grayscale units above the local background. The analysis provided the average area of each cell that is covered by puncta (pit/cell), which are indicated by bright green spots on the SOD1^G85RYFP image set.
The assay was performed in triplicate for each condition tested, and wells containing the media with vehicle (0.1 % DMSO) or (−)-MG-132 alone were used as controls representing the minimum and maximum aggregate formation. […] The data for EC50 determination was treated with Prism and fitted using a semi-logarithmic curve for determination of the EC50 values of NU9 and compounds 4, 6, 20 and 21.

[3] = Parallel artificial membrane permeability assay - blood brain barrier (PAMPA-BBB); conditions: for Log Pe: High permeability LogPe > −5.33, No permeability LogPe < −6.14; for Papp at 18 h, 250 μM: pig, PAMPA, pH 7.5
Protocol: A solution of 1 × PBS (pH 7.5) was initially prepared by the dilution of a commercially available 10 × PBS solution. […] A solution of porcine brain lipid (PBL) (20 mg/mL in dodecane) was prepared, and 4 μL of this solution was used to coat the filters on the bottom of the PAMPA donor plates (Sigma Aldrich #MAIPNTR10). After air drying for 20 min, the donor plate wells were charged with 250 μL of the solutions of the test compounds or the controls. The donor plate was then placed over the acceptor plate (Sigma Aldrich #MATRNPS50), in which wells were previously filled with 1 × PBS (2 % DMSO v/v) solution. The PAMPA sandwich was closed with parafilm and incubated at 25 °C for 18 h in a humidity-saturated atmosphere with orbital agitation. […] The UV spectra (250–400 nm) of each well were acquired on a BioTek Synergy H1 MD plate reader equipped with a monochromator at room temperature.
CA(t) is the concentration of the compounds at the final time of incubation on the acceptor well; CD(0) and CD(t) are the concentration of the compounds at the initial time of incubation and at the final time of incubation on the donor well, respectively.

P-gp = target: T1, P-gp (Homo sapiens, UniProt P08183); assay: MDCK-MDR1 bidirectional permeability / efflux assay; assay type: in vitro ADME; conditions: MDCK-MRD1, absence of zosuquidar
T1 construct: host or cells: MDCK-MDR1 (Madin Darby canine kidney cells carrying the MDR1 gene)
Protocol: The assay was carried out at Sai Life Sciences. Stock solutions of 6, 20, assay controls loperamide, atenolol, and propanolol (4 and 20 mM), and P-gp inhibitor zosuquidar (10 mM) were prepared in DMSO. Then the stock solutions from each test compound were diluted in HBSS buffer containing 10 mM HEPES to obtain the assay working solutions without the P-gp inhibitor at 2 and 10 μM (0.1 % DMSO v/v). Into working solutions containing zosuquidar (5 μM) were individually diluted 6, 20, and loperamide to obtain working solutions containing the test compounds at 2 or 10 μM and zosuquidar at 5 μM.
The MDCK-MDR1 (Madin Darby canine kidney - Multidrug Resistance gene-1) cells were cultured in DMEM media supplemented with 10 % FBS and antibiotics. For transport studies, cells were seeded into PET trans filter membranes (Millipore #PSRP010R5; 1.0 μm pore size) at a density of 1.2 × 10^5 cells/well and colchicine was added to the flasks and plates according to their volume. After 24 h, the media were replaced by fresh media and then changed every 2 days over 8 days. The media were removed from the wells of the basal and apical compartments of the plates, and a solution of HBSS with or without zosuquidar (5 μM) was added to the apical (400 μL) and basal (800 μL) sides of the plates. The plates were pre-incubated at 37 °C for 30 min in humidified air with 5 % CO2. The TTER (Transepithelial-Transendothelial Electrical Resistance) value for each well was recorded (assay TEER >83 Ω.cm^2). The buffer was removed from both compartments, and for the apical to basal direction transport determination, the apical compartment was loaded with 400 μL of the working solutions of the tested compounds or controls (2 or 10 μM) in the presence or absence of zosuquidar (5 μM), and the basal compartment was loaded with 800 μL of HBSS (0.1 % DMSO v/v). For the basal to apical direction transport determination, the compartments were loaded in their reverse order. The assay was performed in duplicate for the two transport directions [apical to basolateral (A → B) and basolateral to apical (B → A)]. After 120 min, 100 μL samples from both the apical and basal sides of the plate were transferred to new 96-deep well plates, quenched with acetonitrile containing an internal standard, vortexed for 5 min, and then centrifuged at 4000 rpm for 10 min. The same procedure was used to prepare a 96-deep well plate containing non-assayed working solutions (t = 0 concentrations). After centrifugation, 100 μL of the supernatant of each well was transferred to a new 96-well plate, and the samples were analyzed by LC-MS/MS.
For each experiment, the apparent permeability (Papp) for each direction and the efflux ratio (ER) were determined by the equations: Papp(cm/s)=(dQ/dt)/A×Co
where dQ/dt is the rate of permeation of the tested compounds across the (0 and 120 min) after correcting for dilution; A is the area of the filter (0.7 cm^2); Co is the initial concentration of the compounds on the donor compartment.
Where P(B→A) is the apparent permeability of the compounds from the basal to the apical direction and P(A→B) is the apparent permeability from the apical to basal direction. Lucifer Yellow was used as a control of the assay to evaluate monolayer integrity after incubation with the working solutions of the compounds, and the results were validated if the permeability of Lucifer Yellow from the apical to the basal side after 1-h incubation was kept <2 %. The results are presented as an average of two independent experiments.

T1 sequence (P08183 whole entry): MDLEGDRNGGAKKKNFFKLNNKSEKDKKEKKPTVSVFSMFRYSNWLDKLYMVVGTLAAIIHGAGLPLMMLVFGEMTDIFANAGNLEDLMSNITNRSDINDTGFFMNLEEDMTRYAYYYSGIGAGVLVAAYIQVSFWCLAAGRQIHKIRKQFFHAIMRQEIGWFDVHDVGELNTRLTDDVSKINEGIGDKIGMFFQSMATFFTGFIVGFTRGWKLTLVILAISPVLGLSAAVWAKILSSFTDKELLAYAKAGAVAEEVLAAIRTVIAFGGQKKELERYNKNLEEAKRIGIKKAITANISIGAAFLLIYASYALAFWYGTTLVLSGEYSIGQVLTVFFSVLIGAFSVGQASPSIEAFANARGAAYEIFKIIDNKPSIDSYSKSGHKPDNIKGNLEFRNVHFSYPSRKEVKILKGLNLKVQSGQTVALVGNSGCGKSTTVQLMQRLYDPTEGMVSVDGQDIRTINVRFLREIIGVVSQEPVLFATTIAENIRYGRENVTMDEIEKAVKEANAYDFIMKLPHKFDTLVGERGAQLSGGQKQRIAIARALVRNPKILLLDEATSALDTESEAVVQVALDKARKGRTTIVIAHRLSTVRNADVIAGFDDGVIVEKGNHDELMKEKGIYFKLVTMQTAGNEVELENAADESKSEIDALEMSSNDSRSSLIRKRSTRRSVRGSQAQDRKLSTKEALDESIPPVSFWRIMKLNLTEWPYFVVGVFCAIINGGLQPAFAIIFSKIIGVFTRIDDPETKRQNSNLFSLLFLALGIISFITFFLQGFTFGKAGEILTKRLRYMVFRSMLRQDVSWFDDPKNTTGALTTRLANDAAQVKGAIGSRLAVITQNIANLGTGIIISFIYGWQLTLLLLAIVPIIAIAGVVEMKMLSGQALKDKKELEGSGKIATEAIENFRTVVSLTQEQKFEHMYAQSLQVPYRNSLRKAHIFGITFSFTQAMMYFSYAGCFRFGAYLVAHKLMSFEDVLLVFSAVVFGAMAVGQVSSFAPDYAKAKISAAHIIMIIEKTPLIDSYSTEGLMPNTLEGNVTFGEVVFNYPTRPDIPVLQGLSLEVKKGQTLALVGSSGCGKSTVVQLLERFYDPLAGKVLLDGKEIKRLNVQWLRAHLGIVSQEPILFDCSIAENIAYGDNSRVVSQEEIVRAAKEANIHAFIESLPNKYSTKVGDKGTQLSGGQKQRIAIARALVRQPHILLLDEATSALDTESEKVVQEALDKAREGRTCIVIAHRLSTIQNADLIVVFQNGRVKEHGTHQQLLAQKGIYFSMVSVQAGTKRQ

SMILES: O=C1CC(=O)CC(c2ccc(F)cc2)C1 [Compound 1]
- EC50 [1]: 0.8 µM

SMILES: O=C1CC(=O)CC(c2cc(C(F)(F)F)cc(C(F)(F)F)c2)C1 [Compound 2]
- activity in cortical neuron protection assays (cortical neurons): inactive
- EC50 [1]: 0.7 µM

SMILES: O=C1CC(=O)CC(C(O)Cc2cc(C(F)(F)F)cc(C(F)(F)F)c2)C1 (stereo not drawn) [Compound 4, 5-(2-(3,5-Bis(trifluoromethyl)phenyl)-1-hydroxyethyl)cyclohexane-1,3-dione]
- EC50 [2]: 7.89 ± 1.88 µM
- loss of potency relative to NU-9 [2]: 3 fold
- Log Pe ([3]; PAMPA-BBB): −6.61
- Papp at 18 h, 250 μM [3]: 0.25 ± 0.01 ×10⁻⁶ cm/s

SMILES: O[C@@H]1CC([C@H](O)Cc2cc(C(F)(F)F)cc(C(F)(F)F)c2)C[C@H](O)C1 (stereo partly drawn) [Compound 5, (1R,3S)-5-((R)-2-(3,5-Bis(trifluoromethyl)phenyl)-1-hydroxyethyl)cyclohexane-1,3-diol]
- EC50 against MG132-induced mutant SOD1 intracellular aggregation [2]: Inactive

SMILES: COC1=CC(=O)C(Cc2cc(C(F)(F)F)cc(C(F)(F)F)c2)C1 (stereo not drawn) [Compound 7, 5-(3,5-Bis(trifluoromethyl)benzyl)-3-methoxycyclopent-2-en-1-one]
- EC50 against MG132-induced mutant SOD1 intracellular aggregation [2]: Inactive

SMILES: O=C1CC(=O)C(Cc2cc(C(F)(F)F)cc(C(F)(F)F)c2)C1 (stereo not drawn) [Compound 8, 4-(3,5-Bis(trifluoromethyl)benzyl)cyclopentane-1,3-dione]
- EC50 [2]: > 10 µM

SMILES: O=C1CC(=O)CN(CCc2cc(C(F)(F)F)cc(C(F)(F)F)c2)C1 [Compound 10, 1-(3,5-Bis(trifluoromethyl)phenethyl)piperidine-3,5-dione]
- EC50 [2]: > 10 µM

SMILES: O=C1CC2CC(C1)C(Cc1cc(C(F)(F)F)cc(C(F)(F)F)c1)O2 (stereo not drawn) [Compound 11]
- EC50 against MG132-induced mutant SOD1 intracellular aggregation [2]: Inactive

SMILES: O=C1CC2CC(C1)C(Cc1cc(C(F)(F)F)cc(C(F)(F)F)c1)O2 (stereo not drawn) [Compound 12]
- EC50 against MG132-induced mutant SOD1 intracellular aggregation [2]: Inactive

SMILES: OC1CC2CC(C1)C(Cc1cc(C(F)(F)F)cc(C(F)(F)F)c1)O2 (stereo not drawn) [Compound 13]
- EC50 against MG132-induced mutant SOD1 intracellular aggregation [2]: Inactive

SMILES: OC1CC2CC(C1)C(Cc1cc(C(F)(F)F)cc(C(F)(F)F)c1)O2 (stereo not drawn) [Compound 14]
- EC50 against MG132-induced mutant SOD1 intracellular aggregation [2]: Inactive

SMILES: OC1CC2CC(C1)C(Cc1cc(C(F)(F)F)cc(C(F)(F)F)c1)O2 (stereo not drawn) [Compound 15]
- EC50 against MG132-induced mutant SOD1 intracellular aggregation [2]: Inactive

SMILES: O=C1CC2CC(C1)C(c1cc(C(F)(F)F)cc(C(F)(F)F)c1)O2 (stereo not drawn) [Compound 16]
- EC50 [2]: > 10 µM
- decrease in MG132-induced SOD-1^G85R aggregate formation ([2]; at 10 μM, 72 h): mild anti-aggregation activity

SMILES: OC1CC2CC(C1)C(c1cc(C(F)(F)F)cc(C(F)(F)F)c1)O2 (stereo not drawn) [Compound 17]
- EC50 against MG132-induced mutant SOD1 intracellular aggregation [2]: Inactive

SMILES: Cl.N[C@H]1C[C@H]2C[C@@H](C1)[C@H](Cc1cc(C(F)(F)F)cc(C(F)(F)F)c1)O2 [Compound 18, (1R,3R,5R,7S)-7-(3,5-Bis(trifluoromethyl)benzyl)-6-oxabicyclo[3.2.1]octan-3-aminium chloride]
- EC50 against MG132-induced mutant SOD1 intracellular aggregation [2]: Inactive

SMILES: Cl.N[C@@H]1C[C@H]2C[C@@H](C1)[C@H](Cc1cc(C(F)(F)F)cc(C(F)(F)F)c1)O2 [Compound 19, (1R,3S,5R,7S)-7-(3,5-Bis(trifluoromethyl)benzyl)-6-oxabicyclo[3.2.1]octan-3-aminium chloride]
- EC50 against MG132-induced mutant SOD1 intracellular aggregation [2]: Inactive

SMILES: O=C1CC(=O)CC(C2(Oc3cc(C(F)(F)F)cc(C(F)(F)F)c3)CCC2)C1 [Compound 21, 5-(1-(3,5-bis(trifluoromethyl)phenoxy)cyclobutyl)cyclohexane-1,3-dione]
- EC50 [2]: 5.37 ± 1.03 µM
- loss of potency relative to NU-9 [2]: > 2 fold
- Log Pe ([3]; PAMPA-BBB): −4.77
- Papp at 18 h, 250 μM [3]: 16.8 ± 0.54 ×10⁻⁶ cm/s

SMILES: CC1=NN(c2ccccc2)C(=O)C1 [Edaravone, edaravone, reference compound]
- Pe ([3]; PAMPA-BBB, 250 μM, PBS pH 7.5, 25 °C, 18 h): 17.43 ± 3.20 10^−6 cm/s
- Log Pe ([3]; PAMPA-BBB): −4.76

SMILES: CN(C)C(=O)C(CCN1CCC(O)(c2ccc(Cl)cc2)CC1)(c1ccccc1)c1ccccc1 [Lop., loperamide, reference compound]
- Papp (B → A) (P-gp): 25.70 ± 0.35 10^−6 cm/s
- efflux ratio at 120 min (P-gp; dog, MDCK-MDR1, read-out: Efflux Ratio): 128
- Papp A→B at 120 min (P-gp; dog, MDCK-MDR1, read-out: Papp (A → B)): 0.2 ± 0.06 ×10⁻⁶ cm/s
